“And” between values parts separate entries of the source, which are not always exact repeats. Equal entries are not always repeated. Toxic doses and inconclusive results are not listed.
Test system: L1210 leukemia ip in BDF1 mice, survival T/C
Assay: NCI In Vivo Anticancer Drug Screen. Data for tumor model L1210 Leukemia (intraperitoneal) in B6D2F1 (BDF1) mice
Details: endpoint: mean survival time, higher = longer survival
Method in brief: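 Transplantable tumor model; survival measured in treated vs vehicle control mice. Value = treated/control.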

[1] = dose: 100.0 mg/kg/injection, schedule: Q04DX002 (ip), vehicle: saline with Tween-80
[2] = dose: 400.0 mg/kg/injection, schedule: Q04DX002 (ip), vehicle: saline with Tween-80

Structure (SMILES): CC1CCCCN1Cc1ccccc1COC(=O)c1cccc(Cl)c1 (stereo not given)
- T/C (dose: 25.0 mg/kg/injection, schedule: Q04DX002 (ip), vehicle: other): 98 % of control
- T/C (dose: 50.0 mg/kg/injection, schedule: Q04DX002 (ip), vehicle: other): 113 % of control
- T/C (dose: 50.0 mg/kg/injection, schedule: Q04DX002 (ip), vehicle: saline with Tween-80): 91 % of control
- T/C (dose: 100.0 mg/kg/injection, schedule: Q04DX002 (ip), vehicle: other): 88 % of control
- T/C [1]: 94 % of control and 86 % of control
- T/C [2]: 101 % of control

Structure (SMILES): ONc1nc(NO)c2[nH]cnc2n1
- T/C (dose: 0.25 mg/kg/injection, schedule: Q01DX009 (ip), vehicle: other): 109 % of control
- T/C (dose: 1.2 mg/kg/injection, schedule: Q01DX009 (ip), vehicle: carboxymethylcellulose (CMC)): 115 % of control
- T/C (dose: 2.5 mg/kg/injection, schedule: Q01DX009 (ip), vehicle: other): 165 % of control
- T/C (dose: 3.7 mg/kg/injection, schedule: Q01DX009 (ip), vehicle: carboxymethylcellulose (CMC)): 150 % of control
- T/C (dose: 5.0 mg/kg/injection, schedule: Q01DX009 (ip), vehicle: other): 202 % of control
- T/C (dose: 10.0 mg/kg/injection, schedule: Q01DX009 (ip), vehicle: other): 210 % of control
- T/C (dose: 10.5 mg/kg/injection, schedule: Q01DX009 (ip), vehicle: other): 203 % of control
- T/C (dose: 18.0 mg/kg/injection, schedule: Q01DX009 (ip), vehicle: other): 265 % of control
- T/C (dose: 18.7 mg/kg/injection, schedule: Q01DX009 (oral), vehicle: carboxymethylcellulose (CMC)): 114 % of control
- T/C (dose: 30.0 mg/kg/injection, schedule: Q01DX009 (ip), vehicle: carboxymethylcellulose (CMC)): 150 % of control
- T/C (dose: 30.0 mg/kg/injection, schedule: Q01DX009 (ip), vehicle: other): 192 % of control
- T/C (dose: 44.0 mg/kg/injection, schedule: Q01DX001 (ip), vehicle: carboxymethylcellulose (CMC)): 154 % of control
- T/C (dose: 60.0 mg/kg/injection, schedule: Q01DX009 (ip), vehicle: carboxymethylcellulose (CMC)): 150 % of control and 153 % of control
- T/C (dose: 66.0 mg/kg/injection, schedule: Q01DX001 (ip), vehicle: carboxymethylcellulose (CMC)): 172 % of control
- T/C (dose: 75.0 mg/kg/injection, schedule: Q01DX009 (oral), vehicle: carboxymethylcellulose (CMC)): 122 % of control
- T/C (dose: 100.0 mg/kg/injection, schedule: Q01DX001 (ip), vehicle: carboxymethylcellulose (CMC)): 175 % of control
- T/C (dose: 150.0 mg/kg/injection, schedule: Q01DX001 (ip), vehicle: carboxymethylcellulose (CMC)): 214 % of control

Structure (SMILES): CC1CN=C(c2ccc3ccccc3c2O)S1 (stereo not given)
- T/C (dose: 100.0 mg/kg/injection, schedule: Q01DX005 (ip), vehicle: saline with Tween-80): 90 % of control
- T/C (dose: 100.0 mg/kg/injection, schedule: Q01DX009 (ip), vehicle: saline with Tween-80): 113 % of control
- T/C [1]: 103 % of control
- T/C (dose: 200.0 mg/kg/injection, schedule: Q01DX005 (ip), vehicle: saline with Tween-80): 90 % of control
- T/C (dose: 200.0 mg/kg/injection, schedule: Q01DX009 (ip), vehicle: saline with Tween-80): 90 % of control
- T/C (dose: 200.0 mg/kg/injection, schedule: Q04DX002 (ip), vehicle: saline with Tween-80): 96 % of control
- T/C (dose: 400.0 mg/kg/injection, schedule: Q01DX009 (ip), vehicle: saline with Tween-80): 94 % of control
- T/C [2]: 103 % of control

Structure (SMILES): Fc1c(F)c(F)c([Si](c2c(F)c(F)c(F)c(F)c2F)(c2c(F)c(F)c(F)c(F)c2F)c2c(F)c(F)c(F)c(F)c2F)c(F)c1F
- T/C (dose: 100.0 mg/kg/injection, schedule: Q01DX001 (ip), vehicle: saline with Tween-80): 96 % of control
- T/C (dose: 200.0 mg/kg/injection, schedule: Q01DX001 (ip), vehicle: saline with Tween-80): 91 % of control
- T/C (dose: 400.0 mg/kg/injection, schedule: Q01DX001 (ip), vehicle: saline with Tween-80): 86 % of control

Structure (SMILES): Cn1ccccc1=O
- T/C (dose: 100.0 mg/kg/injection, schedule: Q04DX002 (ip), vehicle: saline): 104 % of control
- T/C (dose: 200.0 mg/kg/injection, schedule: Q04DX002 (ip), vehicle: saline): 98 % of control
- T/C (dose: 400.0 mg/kg/injection, schedule: Q04DX002 (ip), vehicle: saline): 104 % of control

Structure (SMILES): CCC(C)(C)NC(N)=O
- T/C (dose: 100.0 mg/kg/injection, schedule: Q04DX002 (ip), vehicle: Klucel (hydroxypropylcellulose) (HPC)): 99 % of control
- T/C (dose: 200.0 mg/kg/injection, schedule: Q04DX002 (ip), vehicle: Klucel (hydroxypropylcellulose) (HPC)): 92 % of control
- T/C (dose: 400.0 mg/kg/injection, schedule: Q04DX002 (ip), vehicle: Klucel (hydroxypropylcellulose) (HPC)): 96 % of control
